# Test system: E. coli (ATCC 25922)
# Experiment: AATCC Test Method 100-2012 antibacterial activity of the treated textile, after 25 washes and 12 abrasion cycles, contact time 60 minutes
# Assay type: cell-based
# Procedure: The antibacterial activity of the textile was tested in accordance with AATCC Test Method 100-2012. Prior to the test, the fabric was cut into coupons of 2×4 inches and washed separately 25 times, and exposed to 12 abrasion cycles, as per US EPA protocol 90072PA4 (described further below). The tests were made against E. coli (ATCC 25922). Contact time was 60 minutes, after inoculating with 10^8 CFU per coupon.
substance,measurement,setting,value
polyglucosamine [chitosan],Log reduction of antimicrobial performance of each active ingredient,"exhaust 80 ° C., solution dosage 1% o.w.f, process time 90 min",2.72 Log
same,Log reduction of antimicrobial performance,"pure cotton fabric, exhaust 80° C., 60 min, dosage 0.1% o.w.f",0.63 Log
same,Log reduction of antimicrobial performance,"pure cotton fabric, exhaust 80° C., 60 min, dosage 0.2% o.w.f",1.37 Log
same,Log reduction of antimicrobial performance,"pure cotton fabric, exhaust 80° C., 60 min, dosage 0.5% o.w.f",1.91 Log
same,Log reduction of antimicrobial performance,"pure cotton fabric, exhaust 80° C., 60 min, dosage 0.8% o.w.f",2.21 Log
same,Log reduction of antimicrobial performance,"pure cotton fabric, exhaust 80° C., 60 min, dosage 1.0% o.w.f",2.71 Log
same,Log reduction of antimicrobial performance,"pure cotton, exhaust 80° C., 1% o.w.f, 60 min, curing 180° C., curing dwell time 0.5 min",0.4 Log
same,Log reduction of antimicrobial performance,"pure cotton, exhaust 80° C., 1% o.w.f, 60 min, curing 180° C., curing dwell time 1.0 min",0.8 Log
same,Log reduction of antimicrobial performance,"pure cotton, exhaust 80° C., 1% o.w.f, 60 min, curing 180° C., curing dwell time 1.5 min",1.6 Log
same,Log reduction of antimicrobial performance,"pure cotton, exhaust 80° C., 1% o.w.f, 60 min, curing 180° C., curing dwell time 2.0 min",2.7 Log
same,Log reduction of antimicrobial performance,"pure cotton, exhaust 80° C., 1% o.w.f, 60 min, curing 180° C., curing dwell time 2.5 min",2.3 Log
same,Log reduction of antimicrobial performance,"pure cotton, exhaust 80° C., 1% o.w.f, 60 min, curing 180° C., curing dwell time 3.0 min",1.4 Log
same,Log reduction of antimicrobial performance,"solution dosage 0.10% o.w.f, exhaust temperature 40° C., process time 60 min",0 Log
same,Log reduction of antimicrobial performance,"solution dosage 0.10% o.w.f, exhaust temperature 60° C., process time 60 min",0 Log
same,Log reduction of antimicrobial performance,"solution dosage 0.10% o.w.f, exhaust temperature 65° C., process time 60 min",0 Log
same,Log reduction of antimicrobial performance,"solution dosage 0.10% o.w.f, exhaust temperature 70° C., process time 60 min",0 Log
same,Log reduction of antimicrobial performance,"solution dosage 0.10% o.w.f, exhaust temperature 75° C., process time 60 min",0.23 Log
same,Log reduction of antimicrobial performance,"solution dosage 0.10% o.w.f, exhaust temperature 80° C., process time 60 min",0.57 Log
same,Log reduction of antimicrobial performance,"solution dosage 0.10% o.w.f, exhaust temperature 85° C., process time 60 min",0.67 Log
same,Log reduction of antimicrobial performance,"solution dosage 0.10% o.w.f, exhaust temperature 90° C., process time 60 min",0.67 Log
same,Log reduction of antimicrobial performance,"solution dosage 0.10% o.w.f, exhaust temperature 95° C., process time 60 min",0.67 Log
same,Log reduction of antimicrobial performance,"solution dosage 0.20% o.w.f, exhaust temperature 40° C., process time 60 min",0 Log
same,Log reduction of antimicrobial performance,"solution dosage 0.20% o.w.f, exhaust temperature 60° C., process time 60 min",0 Log
same,Log reduction of antimicrobial performance,"solution dosage 0.20% o.w.f, exhaust temperature 65° C., process time 60 min",0 Log
same,Log reduction of antimicrobial performance,"solution dosage 0.20% o.w.f, exhaust temperature 70° C., process time 60 min",0 Log
same,Log reduction of antimicrobial performance,"solution dosage 0.20% o.w.f, exhaust temperature 75° C., process time 60 min",0.67 Log
same,Log reduction of antimicrobial performance,"solution dosage 0.20% o.w.f, exhaust temperature 80° C., process time 60 min",1.34 Log
same,Log reduction of antimicrobial performance,"solution dosage 0.20% o.w.f, exhaust temperature 85° C., process time 60 min",1.43 Log
same,Log reduction of antimicrobial performance,"solution dosage 0.20% o.w.f, exhaust temperature 90° C., process time 60 min",1.45 Log
same,Log reduction of antimicrobial performance,"solution dosage 0.20% o.w.f, exhaust temperature 95° C., process time 60 min",1.45 Log
same,Log reduction of antimicrobial performance,"solution dosage 0.50% o.w.f, exhaust temperature 40° C., process time 60 min",0 Log
same,Log reduction of antimicrobial performance,"solution dosage 0.50% o.w.f, exhaust temperature 60° C., process time 60 min",0.09 Log
same,Log reduction of antimicrobial performance,"solution dosage 0.50% o.w.f, exhaust temperature 65° C., process time 60 min",0.09 Log
same,Log reduction of antimicrobial performance,"solution dosage 0.50% o.w.f, exhaust temperature 70° C., process time 60 min",0.15 Log
same,Log reduction of antimicrobial performance,"solution dosage 0.50% o.w.f, exhaust temperature 75° C., process time 60 min",1.12 Log
same,Log reduction of antimicrobial performance,"solution dosage 0.50% o.w.f, exhaust temperature 80° C., process time 60 min",1.89 Log
same,Log reduction of antimicrobial performance,"solution dosage 0.50% o.w.f, exhaust temperature 85° C., process time 60 min",1.93 Log
same,Log reduction of antimicrobial performance,"solution dosage 0.50% o.w.f, exhaust temperature 90° C., process time 60 min",1.94 Log
same,Log reduction of antimicrobial performance,"solution dosage 0.50% o.w.f, exhaust temperature 95° C., process time 60 min",1.94 Log
same,Log reduction of antimicrobial performance,"solution dosage 0.80% o.w.f, exhaust temperature 40° C., process time 60 min",0 Log
same,Log reduction of antimicrobial performance,"solution dosage 0.80% o.w.f, exhaust temperature 60° C., process time 60 min",0.15 Log
same,Log reduction of antimicrobial performance,"solution dosage 0.80% o.w.f, exhaust temperature 65° C., process time 60 min",0.15 Log
same,Log reduction of antimicrobial performance,"solution dosage 0.80% o.w.f, exhaust temperature 70° C., process time 60 min",0.21 Log
same,Log reduction of antimicrobial performance,"solution dosage 0.80% o.w.f, exhaust temperature 75° C., process time 60 min",1.23 Log
same,Log reduction of antimicrobial performance,"solution dosage 0.80% o.w.f, exhaust temperature 80° C., process time 60 min",2.11 Log
same,Log reduction of antimicrobial performance,"solution dosage 0.80% o.w.f, exhaust temperature 85° C., process time 60 min",2.34 Log
same,Log reduction of antimicrobial performance,"solution dosage 0.80% o.w.f, exhaust temperature 90° C., process time 60 min",2.37 Log
same,Log reduction of antimicrobial performance,"solution dosage 0.80% o.w.f, exhaust temperature 95° C., process time 60 min",2.37 Log
same,Log reduction of antimicrobial performance,"solution dosage 1.00% o.w.f, exhaust temperature 40° C., process time 60 min",0 Log
same,Log reduction of antimicrobial performance,"solution dosage 1.00% o.w.f, exhaust temperature 60° C., process time 60 min",0.21 Log
same,Log reduction of antimicrobial performance,"solution dosage 1.00% o.w.f, exhaust temperature 65° C., process time 60 min",0.22 Log
same,Log reduction of antimicrobial performance,"solution dosage 1.00% o.w.f, exhaust temperature 70° C., process time 60 min",0.32 Log
same,Log reduction of antimicrobial performance,"solution dosage 1.00% o.w.f, exhaust temperature 75° C., process time 60 min",1.28 Log
same,Log reduction of antimicrobial performance,"solution dosage 1.00% o.w.f, exhaust temperature 80° C., process time 60 min",2.67 Log
same,Log reduction of antimicrobial performance,"solution dosage 1.00% o.w.f, exhaust temperature 85° C., process time 60 min",2.76 Log
same,Log reduction of antimicrobial performance,"solution dosage 1.00% o.w.f, exhaust temperature 90° C., process time 60 min",2.78 Log
same,Log reduction of antimicrobial performance,"solution dosage 1.00% o.w.f, exhaust temperature 95° C., process time 60 min",2.78 Log

# Source: US20210254272A1, “TEXTILES HAVING ANTIMICROBIAL PROPERTIES” (Livinguard AG, priority 2015, published 2021)
